Test results from publication PMC12408683 (Archives of Toxicology, 2025).

Legend:
[1] = parameters: method as in Carlsson et al. 2022; details: concentrations below 25 µM; ref Carlsson et al. 2022; cited from earlier work
[2] = parameters: method as in Carlsson et al. 2022; details: ref Carlsson et al. 2022; cited from earlier work
human liver biopsies = test system: human liver biopsies; parameters: method as in Herrmann et al. 2013; details: ref Herrmann et al. 2013; cited from earlier work
HepG2-CYP1A2 cells [3] = details: positive control
Method: The CBMN assay was performed according to the OECD test guideline #487. Therefore, 2 × 10^5 cells were seeded in 3.5 cm dishes and allowed to adhere for 24 h. […] After the 24 h treatment, the medium was discarded and the cells were incubated with fresh medium, containing 6 µg/mL cytochalasin B as cytokinesis inhibitor. The cells were then left to grow for 72 h, allowing for 1.5–2 × cell cycles. Subsequently, the cells were rinsed with PBS and fixed with ice-cold methanol for 10 min at –20 °C. Cells were washed and embedded with Vectashield® containing DAPI (Vector Labs, Burlingame, CA, USA). The samples were analysed with a Zeiss Axio Observer 7 microscope equipped with an Axiocam 305 mono and a 63 × oil immersion objective (plan-apochromat 63x/1.40 DIC M27) using ZEN Software 3.2. 500 binucleated cells per sample were analysed for micronuclei formation.
As benchmark response (BMR) for all concentration–response curves (adducts, micronuclei), a 2.0-fold increase vs. solvent control was used (BMC100, critical effect size = 1). The determined BMC100 and the corresponding upper and lower boundary (BMCU and BMCL, respectively) of the 90% confidence interval (CI) were used for potency comparison.

calf thymus DNA = test system: calf thymus DNA; parameters: method as in Bergau et al. 2021; details: ref Bergau et al. 2021; cited from earlier work
HepG2 cells [4] = experiment: Resazurin reduction assay (cytotoxicity) in HepG2 cells; details: positive control 10 µM, time-dependent
HepG2 cells [5] = details: positive control, 200 µM, 20 min
Method: (§1) As a positive control, tBuOOH (20 min, 200 µM) was used. Subsequently, the alkaline comet assay was performed to quantify DNA strand breaks as previously described (Haas et al. [2023b]). Per sample, at least 50 comets were counted with Comet IV software (Instem, Staffordshire, UK) using a Zeiss Axio Observer 7 microscope equipped with an Axiocam 305 mono and ZEN 3.2 software (Carl Zeiss, Jena, Germany).

HepG2-CYP1A2 cells [6] = experiment: Alkaline comet assay (DNA strand breaks) in HepG2-CYP1A2 cells; details: positive control, 200 µM, 20 min
Method: as §1

For `C=CC(O)c1ccc(OC)c(OC)c1` (centres unmarked) [1′OH-ME, 1′-hydroxymethyleugenol], the cytotoxicity [1] is listed as “not cytotoxic” and the “alkaline comet assay outcome” value [2] is listed as “negative”.
In the case of `C=CCc1ccc(OC)c(OC)c1` [ME, methyleugenol], the “ME-derived DNA adducts, median” value (human liver biopsies) is given as 13 adducts/10^8 nts.
In the case of `CO[C@@]12[C@H](COC(N)=O)C3=C(C(=O)C(C)=C(N)C3=O)N1C[C@@H]1N[C@@H]12` [MMC, mitomycin C, reference compound], the “MN (CBMN)” value (HepG2-CYP1A2 cells [3]) is reported as “robust increase in MN”.
For `C/C=C/c1ccc(OC)cc1` [anethole], the “E3′-N2-dG adduct levels vs equimolar ES concentrations” value (calf thymus DNA) is listed as “several times lower”.
For `COc1cc([C@@H]2c3cc4c(cc3[C@@H](O[C@@H]3O[C@@H]5CO[C@@H](C)O[C@H]5[C@H](O)[C@H]3O)[C@H]3COC(=O)[C@H]23)OCO4)cc(OC)c1O` [etoposide, reference compound], the “cytotoxicity (resazurin reduction assay)” value (HepG2 cells [4]) was “cytotoxic”.
With `CC(C)(C)OO` [tBuOOH, tert-butyl hydroperoxide, reference compound] the “DNA strand breaks (alkaline comet assay)” value (HepG2 cells [5]) was “strong DNA strand break induction” and the “DNA strand breaks (alkaline comet assay)” value (HepG2-CYP1A2 cells [6]) was “strong DNA strand break induction”.
